Consider twelve compounds from ChEMBL document CHEMBL1152708, “Deconstructing estradiol: removal of B-ring generates compounds which are potent and subtype-selective estrogen receptor agonists” (Bioorg Med Chem Lett, 2009).

Test [1] can be described thus: Selectivity ratio of RBA for ERbeta to RBA for ERalpha.
Test [2] concerns the target Estrogen receptor beta (Homo sapiens) (UniProt Q92731). Briefly: Displacement of [3H]estradiol form ERbeta assessed as relative binding affinity relative to estradiol. (In general: Displacement assays read how much labelled ligand stays bound in the presence of the test substance.)
Test [3] addresses T1, Estrogen receptor (Homo sapiens) (UniProt P03372).
T1 sequence (whole entry): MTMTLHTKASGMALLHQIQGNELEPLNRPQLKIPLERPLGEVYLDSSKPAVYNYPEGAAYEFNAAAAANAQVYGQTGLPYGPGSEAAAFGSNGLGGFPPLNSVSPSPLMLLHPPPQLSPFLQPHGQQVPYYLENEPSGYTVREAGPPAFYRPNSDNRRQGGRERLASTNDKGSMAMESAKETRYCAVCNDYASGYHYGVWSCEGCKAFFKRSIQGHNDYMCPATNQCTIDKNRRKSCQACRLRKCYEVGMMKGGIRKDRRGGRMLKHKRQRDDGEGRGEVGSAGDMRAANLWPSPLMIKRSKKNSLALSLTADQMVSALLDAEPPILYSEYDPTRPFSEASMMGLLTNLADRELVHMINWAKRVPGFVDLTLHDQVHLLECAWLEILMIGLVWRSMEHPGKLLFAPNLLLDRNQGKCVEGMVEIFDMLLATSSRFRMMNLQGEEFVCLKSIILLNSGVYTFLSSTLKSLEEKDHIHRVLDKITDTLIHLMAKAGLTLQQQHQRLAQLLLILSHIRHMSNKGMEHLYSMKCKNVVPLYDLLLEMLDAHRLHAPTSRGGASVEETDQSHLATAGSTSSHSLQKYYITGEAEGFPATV
Briefly: Displacement of [3H]estradiol form ERalpha assessed as relative binding affinity relative to estradiol.

Test [4] addresses Estrogen receptor beta (Homo sapiens) (UniProt Q92731). Put plainly: Activity at ERbeta expressed in CHO cells co-transfected with ERE plasmid assessed as relative transcriptional activation at 10 nM by luciferase reporter assay relative to estradiol. In kind it is cell-based. A general note: In a reporter assay the amount or activity of a reporter protein is the signal.
The target of test [5] is T1, Estrogen receptor (Homo sapiens). Put plainly: Activity at ERalpha expressed in CHO cells co-transfected with ERE plasmid assessed as relative transcriptional activation at 10 nM by luciferase reporter assay relative to estradiol. In kind it is cell-based.

Sequence of Estrogen receptor beta (Homo sapiens) (Q92731 whole entry): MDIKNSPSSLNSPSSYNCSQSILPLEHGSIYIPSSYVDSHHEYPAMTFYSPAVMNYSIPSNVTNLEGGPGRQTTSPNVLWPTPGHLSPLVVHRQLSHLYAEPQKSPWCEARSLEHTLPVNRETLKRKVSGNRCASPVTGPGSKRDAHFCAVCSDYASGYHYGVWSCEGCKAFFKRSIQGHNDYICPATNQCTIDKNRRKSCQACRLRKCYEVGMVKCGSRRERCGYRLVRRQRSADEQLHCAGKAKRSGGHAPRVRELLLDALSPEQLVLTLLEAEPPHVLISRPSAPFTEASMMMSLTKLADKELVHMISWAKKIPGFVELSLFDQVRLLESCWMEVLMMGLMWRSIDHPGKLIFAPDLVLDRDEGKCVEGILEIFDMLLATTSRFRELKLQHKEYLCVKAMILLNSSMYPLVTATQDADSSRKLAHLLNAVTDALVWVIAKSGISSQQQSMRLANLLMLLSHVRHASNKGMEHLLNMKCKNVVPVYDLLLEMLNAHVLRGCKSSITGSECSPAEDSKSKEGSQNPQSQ

As to `C=Cc1cc(O)cc2nc(-c3ccc(O)c(F)c3)oc12`, in test [1], the Selectivity ratio came out at 226.
Consider `C[C@]12CC[C@H](c3cc(F)c(O)c(F)c3F)C[C@@H]1CC[C@@H]2O`, for which the Selectivity ratio in test [1] was determined as 9.1. In addition, the RBA came out at 1.73% in test [2] and 0.19% in test [3].
In the case of `Cc1cc(O)ccc1[C@H]1CC[C@@]2(C)[C@@H](CC[C@@H]2O)C1`, the Selectivity ratio in test [1] came out at 12. For the same compound, the RBA in test [2] was 33.6%; in test [3] it was 2.8%. The Activity in test [4] amounted to 149%; in test [5], 9.7%.
As to `O=c1c(-c2ccc(O)cc2)coc2cc(O)cc(O)c12`, the Selectivity ratio in test [1] turned out to be 41.
Take `C[C@]12CC[C@H](c3ccc(O)cc3)C[C@@H]1CC[C@@H]2O`: the Selectivity ratio in test [1] was 14. Also, the RBA in test [2] is 21.5%; in test [3] it was 1.5%. The Activity was found to be 164% in test [4] and 4.3% in test [5].
Take `C[C@]12CC[C@H](c3ccc(O)c(F)c3F)C[C@@H]1CC[C@@H]2O`: the Selectivity ratio in test [1] is 9.3. Also, the RBA in test [2] came to 43%; in test [3], 4.6%.
Regarding `C[C@]12CC[C@H](c3ccc(O)cc3Cl)C[C@@H]1CC[C@@H]2O`, in test [1], the Selectivity ratio came out at 3.4. In addition, the RBA in test [3] was 49%.
As for `C[C@]12CC[C@H](c3cc(F)c(O)c(F)c3)C[C@@H]1CC[C@@H]2O`, the Selectivity ratio in test [1] worked out at 7. The RBA in test [2] is 0.28%; in test [3], 0.04%.
As for `C[C@]12CC[C@H](c3ccc(O)c(F)c3)C[C@@H]1CC[C@@H]2O`, the Selectivity ratio in test [1] was 8.7. The results for the RBA in test [2] and in test [3] were 8.7% and 1%, respectively. Besides, the Activity in test [4] stood at 14%; in test [5] it was 8.3%.
On the same counts, the results for `C[C@]12CC[C@H](c3ccc(O)cc3F)C[C@@H]1CC[C@@H]2O` are 5, 135%, 27%, 146% and 44%.
Take `C[C@]12CC[C@@H](c3ccc(O)cc3)C[C@@H]1CC[C@@H]2O`: the Selectivity ratio in test [1] came to 9.8. The RBA in test [2] is 0.59%; in test [3] it was 0.06%.
On to `C[C@]12CC[C@H](c3cc(F)c(O)cc3F)C[C@@H]1CC[C@@H]2O`, for which the Selectivity ratio in test [1] amounted to 8.7. The results for the RBA in test [2] and in test [3] were 3.3% and 0.38%, respectively.
